Laboratory results taken from patent publication US20240132492A1, “PYRIDOPYRIMIDINE-BASED COMPOUND AND APPLICATION THEREOF” (JINAN UNIVERSITY, priority 2021, published 2024).

Assays:
Assay type in all cases: cell-based
AKT1 = target: T1, AKT1 (Homo sapiens, UniProt P31749); test: Western Blot, degradation of AKT1 protein in H1975-OR cells; conditions: 1000 nM, 24 hours, maximum degradation rate
T1 construct: AKT1, AKT2, and AKT3 proteins in H1975-OR cells; endogenous in cells; host or cells: H1975-OR (osimertinib-resistant H1975)
T1 sequence (P31749 whole entry): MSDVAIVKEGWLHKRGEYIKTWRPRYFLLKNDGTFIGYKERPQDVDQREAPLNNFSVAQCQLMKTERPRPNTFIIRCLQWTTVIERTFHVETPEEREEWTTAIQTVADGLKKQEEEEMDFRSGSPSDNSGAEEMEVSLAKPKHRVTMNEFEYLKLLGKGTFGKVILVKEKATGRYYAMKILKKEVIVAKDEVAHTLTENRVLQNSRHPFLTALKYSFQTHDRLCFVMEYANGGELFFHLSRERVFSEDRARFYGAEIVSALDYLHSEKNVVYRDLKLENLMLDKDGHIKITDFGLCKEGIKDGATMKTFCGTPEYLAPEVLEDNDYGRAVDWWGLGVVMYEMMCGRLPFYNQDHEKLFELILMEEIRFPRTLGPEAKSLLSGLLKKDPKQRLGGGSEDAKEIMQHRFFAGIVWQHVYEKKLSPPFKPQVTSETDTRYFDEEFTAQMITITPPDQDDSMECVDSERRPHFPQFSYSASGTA
Description: (§1) Cell line: Non-small cell lung cancer H1975-OR cell line, which is an Osimertinib resistant H1975 cell line, and could be obtained through low dose gradual addition culture. Specific method: H1975 cells were spread in a 10 cm culture dish at a convergence rate of 60-70%, added 50 nM of Osimertinib to the culture medium. After the cell state stabilized, the concentration of Osimertinib was gradually double to 3 μM.
(§2) Conventional Western Blot (immunoblotting) was used for detection, as follows: a certain number of H1975-OR cells were planted on a 96 well plate, adherent cultured in an incubator overnight, and added a certain concentration of compound to act for 24 hours. 1×SDS lysis buffer with protease and phosphatase inhibitors was used to lyse cells. Cell lysates were separated by SDS-PAGE and transferred to PVDF membrane. Then, at room temperature, the PCDF membrane was taken out and immersed in a sealing solution (5% BSA TBS solution containing 0.5% Tween-20) for sealing treatment for 1 hour, and then incubated with a specific primary antibody at 4° C. overnight. The imprints were washed with TBST and incubated with horseradish peroxidase (HRP) labeled secondary antibodies at room temperature for 2 hours. Finally, ECL plus fluorescence detection reagent (Thermo Scientific, Waltham, MA) was used for protein development, and the Amersham Imager 600 system (GE, America) was used for photography. The detection results were processed using ImageJ software to obtain the grayscale value G (Density).

AKT2 = target: T2, AKT2 (Homo sapiens, UniProt P31751); test: Western Blot, degradation of AKT2 protein in H1975-OR cells; conditions: 1000 nM, 24 hours, maximum degradation rate
T2 construct: AKT1, AKT2, and AKT3 proteins in H1975-OR cells; endogenous in cells; host or cells: H1975-OR (osimertinib-resistant H1975)
T2 sequence (P31751 whole entry): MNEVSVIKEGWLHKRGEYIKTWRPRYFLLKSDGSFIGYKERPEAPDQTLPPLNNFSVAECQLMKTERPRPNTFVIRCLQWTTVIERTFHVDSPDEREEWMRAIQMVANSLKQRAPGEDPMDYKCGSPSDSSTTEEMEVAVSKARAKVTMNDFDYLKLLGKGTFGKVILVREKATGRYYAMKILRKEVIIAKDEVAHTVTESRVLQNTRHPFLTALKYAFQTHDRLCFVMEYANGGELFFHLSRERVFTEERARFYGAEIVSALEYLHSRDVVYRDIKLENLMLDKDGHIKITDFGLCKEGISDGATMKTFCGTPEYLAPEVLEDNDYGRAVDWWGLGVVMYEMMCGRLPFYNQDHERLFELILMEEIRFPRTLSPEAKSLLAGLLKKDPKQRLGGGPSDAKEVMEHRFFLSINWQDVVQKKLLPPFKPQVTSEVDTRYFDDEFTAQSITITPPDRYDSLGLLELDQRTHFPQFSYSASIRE
Description: as §1, §2

H1975 = test: CCK-8 tumor cell proliferation, H1975; conditions: Homo sapiens, NCI-H1975, H1975 cells, 72 hours
Description: (§3) Tumor cells (see Table 2 to Table 5) were inoculated in 96-well plates in complete culture medium (2000-3000 cells/well). After overnight incubation, the compounds with different concentrations (0.000508 μM-10 μM) were used to treat the cells separately for 72 hours. CCK-8 (Cell Counting Kit 8, Dojindo Laboratories, Kumamoto, Japan) experiment was used to evaluate cell proliferation. GraphPad Prism 5.0 software (La Jolla, CA) was used to calculate the half-maximal inhibitory concentration (IC50) values by fitting the concentration response curve. Each IC50 value was represented as an average value±SD.

H1975OR = test: CCK-8 tumor cell proliferation, H1975OR; conditions: H1975OR cells (Osimertinib resistant), 72 hours
Description: as §1, §3

AKT3 = AKT3 (Homo sapiens, UniProt Q9Y243); test: Western Blot, degradation of AKT3 protein in H1975-OR cells; set-up: endogenous in cells; host or cells: H1975-OR (osimertinib-resistant H1975); conditions: 1000 nM, 24 hours, maximum degradation rate
Sequence of AKT3 (Q9Y243 whole entry): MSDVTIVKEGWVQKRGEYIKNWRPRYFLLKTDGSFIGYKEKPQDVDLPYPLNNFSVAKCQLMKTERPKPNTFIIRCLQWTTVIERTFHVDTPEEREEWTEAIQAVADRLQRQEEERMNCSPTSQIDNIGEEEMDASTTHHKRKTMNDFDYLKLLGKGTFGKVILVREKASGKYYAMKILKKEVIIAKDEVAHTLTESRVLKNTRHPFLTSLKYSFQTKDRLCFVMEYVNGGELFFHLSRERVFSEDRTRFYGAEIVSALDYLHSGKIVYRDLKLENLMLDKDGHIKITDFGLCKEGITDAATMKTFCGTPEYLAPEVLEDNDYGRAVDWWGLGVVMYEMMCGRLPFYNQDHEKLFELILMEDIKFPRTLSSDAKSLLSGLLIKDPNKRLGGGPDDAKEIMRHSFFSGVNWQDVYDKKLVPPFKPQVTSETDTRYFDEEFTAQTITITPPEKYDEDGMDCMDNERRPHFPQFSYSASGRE
Description: as §1, §2

Row | SMILES | Dmax at 1 µM (AKT1) | Dmax at 1 µM (AKT2) | IC50 (H1975) | IC50 (H1975OR) | Dmax at 1 µM (AKT3)
1 | COc1cc(N2CCN(CCCCCCCCNC(=O)[C@@]34CC5C[C@@](C)(C[C@@](C)(C5)C3)C4)CC2)ccc1Nc1ncc2c(C)cc(=O)n(-c3cccc(NC(=O)C4CC4)c3)c2n1 [ZX-HYT-32] | 0% | 24.3% | 1.02 ± 0.24 µM | 0.21 ± 0.04 µM | 45.2%
2 | COc1cc(OCCOCCCCCCCCCCCCNC(=O)CC23CC4CC(CC(C4)C2)C3)ccc1Nc1ncc2c(C)cc(=O)n(-c3cccc(NC(=O)C4CC4)c3)c2n1 [ZX-HYT-27, N-(3-(2-(4-(2-((12-(2-(((3R, 5R, 7R)-adamantan-1-yl)acetylamino)dodecyl)oxy)ethoxy)-2-methoxyphenyl)amino)-5-methyl-7-oxypyridino [2,3-d]pyrimidin-8 (7H)-yl)phenyl) cyclopropaneformamide] | 0% | 30.2% | 7.84 ± 1.35 µM | 1.67 ± 0.69 µM | 76.3%
3 | COc1cc(N2CCN(CCCCCCCCCCCCNC(=O)CC34CC5CC(CC(C5)C3)C4)CC2)ccc1Nc1ncc2c(C)cc(=O)n(-c3cccc(NC4CNC4)c3)c2n1 [ZX-HYT-45, 2-((3R, 5R, 7R)-adamantan-1-yl)-N-(12-(4-(4-((8-(3-(azacyclobutane-3-ylamino)phenyl)-5-methyl-7-oxy-7,8-dihydropyridino [2,3-d]pyrimidin-2-yl)amino)-3-methoxyphenyl)piperazin-1-yl)dodecyl) acetamide] | 32.8% | 17.6% | 2.4 ± 0.226 µM | 2.35 ± 0.11 µM | 29.1%
4 | COc1cc(N2CCN(CCCCCCCCCCCCNC(=O)CC34CC5CC(CC(C5)C3)C4)CC2)ccc1Nc1ncc2c(C)cc(=O)n([C@H]3CCC[C@@H](C(=O)NC4CC4)C3)c2n1 [ZX-HYT-21, (1R, 3S)-3-(2-(4-(4-(12-(2-(((3R, 5R, 7R)-adamantan-1-yl)acetylamino)dodecyl)piperazin-1-yl)-2-methoxyphenyl)amino)-5-methyl-7-oxypyridino [2,3-d]pyrimidin-8 (7H)-yl)-N-cyclopropylcyclohexane-1-carboxylamide] | 0% | 0% | – | – | 6.8%
5 | COc1cc(N2CCN(CCCCCCCCCCCCNC(=O)CC34CC5CC(CC(C5)C3)C4)CC2)ccc1Nc1ncc2c(C)cc(=O)n([C@H]3CCN(C(=O)C4CC4)C3)c2n1 [ZX-HYT-37] | 0% | 0% | 4.15 ± 0.462 µM | 6.31 ± 0.645 µM | 17.5%
6 | COc1cc(N2CCN(CCCCCCCCNC(=O)CC34CC5CC(CC(C5)C3)C4)CC2)ccc1Nc1ncc2c(C)cc(=O)n(-c3cccc(NC(=O)C4CC4)c3)c2n1 [ZX-HYT-47, N-(3-(2-((4-(4-(8-(2-((3R, 5R, 7R)-adamantan-1-yl)acetylamino)octyl)piperazin-1-yl)-2-methoxyphenyl))amino)-5-methyl-7-oxypyridino [2,3-d]pyrimidin-8 (7H)-yl) phenyl) cyclopropane formamide] | 0% | 0% | 0.0365 ± 0.0012 µM | 0.0224 ± 0.0127 µM | 67.5%
7 | COc1cc(N2CCN(CCCCCCCCNC(=O)CC(C)(C)C)CC2)ccc1Nc1ncc2c(C)cc(=O)n(-c3cccc(NC(=O)C4CC4)c3)c2n1 [ZX-HYT-33] | 0% | 43.7% | 2.31 ± 0.52 µM | 0.44 ± 0.14 µM | 55.3%
8 | COc1cc(N2CCN(CCCCCCCCCCCCNC(=O)CC34CC5CC(CC(C5)C3)C4)CC2)ccc1Nc1ncc2c(C)cc(=O)n(-c3ccccc3)c2n1 [ZX-HYT-36, 2-((3R, 5R, 7R)-adamantan-1-yl)-N-(12-(4-(3-methoxy-4-((5-methyl-7-oxy-8-phenyl-7,8))-dihydropyridino [2,3-d]pyrimidin-2-yl)amino)phenyl) piperazin-1-yl) dodecyl) acetamide] | 0% | 0% | 0.219 ± 0.0782 µM | 0.107 ± 0.008 µM | 12.3%
9 | COc1cc(N2CCN(CCCCCCCCNC(=O)C3C[C@H]4CC[C@@H]3C4)CC2)ccc1Nc1ncc2c(C)cc(=O)n(-c3cccc(NC(=O)C4CC4)c3)c2n1 (stereo partly drawn) [ZX-HYT-61] | 14.2% | 31.5% | 0.0738 ± 0.0456 µM | 0.103 ± 0.0592 µM | 15.9%
10 | CCCCCCCCN1CCN(c2ccc(Nc3ncc4c(C)cc(=O)n(-c5cccc(NC(=O)C6CC6)c5)c4n3)c(OC)c2)CC1 [ZX-HYT-30, N-(3-(2-((2-methoxy-4-(4-octylpiperazin-1-yl)phenyl)amino)-5-methyl-7-oxypyridino [2,3-d]pyrimidin-8 (7H)-yl)phenyl) cyclopropane formamide] | 40.5% | 37.1% | > 10 µM | 8.84 ± 2.17 µM | 51.9%
11 | COc1cc(N2CCN(CCCCCCCCNC(=O)C34CC5CC(CC(C5)C3)C4)CC2)ccc1Nc1ncc2c(C)cc(=O)n(-c3cccc(NC(=O)C4CC4)c3)c2n1 [ZX-HYT-35, (3R,5R,7R)—N-(8-(4-(4-((8-(3-(cyclopropaneformamide)phenyl)-5-methyl-7-oxy-7,8-dihydropyridino [2,3-d-dipyrimidin-2-yl)amino)-3-methoxyphenyl)piperazin-1-yl)octyl)adamantan-1-carboxylamide] | 42.2% | 39.1% | 2.59 ± 0.2 µM | 0.32 ± 0.04 µM | 43.4%
12 | COc1cc(N2CCN(CCCCCCCCCCCCNC(=O)CC34CC5CC(CC(C5)C3)C4)CC2)ccc1Nc1ncc2c(C)cc(=O)n(-c3cccc(NCC4CCC4)c3)c2n1 [ZX-HYT-39, 2-((3R, 5R, 7R)-adamantan-1-yl)-N-(12-(4-(4-((8-(3-((cyclobutylmethyl)amino)phenyl)-5-methyl-7)-oxo-7,8-dihydropyridino [2,3-d]pyrimidin-2-yl)amino)-3-methoxyphenyl)piperazin-1-yl) dodecyl) acetamide] | 0% | 51% | 0.00919 ± 0.00567 µM | 0.0102 ± 0.004 µM | 55.3%
13 | CCc1cccc(-n2c(=O)cc(C)c3cnc(Nc4ccc(N5CCN(CCCCCCCCCCCCNC(=O)CC67CC8CC(CC(C8)C6)C7)CC5)cc4OC)nc32)c1 [ZX-HYT-16, 2-((3R, 5R, 7R)-adamantan-1-yl)-N-(12-(4-(4-(8-(3-ethylphenyl)-5-methyl-7-oxy-7,8-dihydropyridino [2,3-d]pyrimidin-2-yl)amino)-3-methoxyphenyl)piperazin-1-yl) dodecyl) acetamide] | 0% | 31.4% | – | – | 70.3%
14 | COc1cc(N2CCN(CCCCCCCCCCCCNC(=O)CC34CC5CC(CC(C5)C3)C4)CC2)ccc1Nc1ncc2c(C)cc(=O)n(-c3cccc(NC4CCN(C)CC4)c3)c2n1 [ZX-HYT-18, 2-((3R, 5R, 7R)-adamantan-1-yl)-N-(12-(4-(3-methoxy-4-(5-methyl-8-(3-(1-methylpipe-4-yl)amino)phenyl)-7-oxo-7,8-dihydropyridino [2,3-d]pyrimidin-2-yl)amino)phenyl) piperazin-1-yl) dodecyl) acetamide] | 0% | 0% | – | – | 30.6%
15 | COc1cc(OCCOCCCCCCCCCCCCOCCC23CC4CC(CC(C4)C2)C3)ccc1Nc1ncc2c(C)cc(=O)n(-c3cccc(NC(=O)C4CC4)c3)c2n1 [ZX-HYT-38, N-(3-(2-((4-(2-((12-(2-((3R, 5R, 7R)-adamantan-1-yl)ethoxy)dodecyl)oxy)ethoxy)-2-methoxyphenyl)amino)-5-methyl-7-oxypyridino [2,3-d]pyrimidin-8 (7H)-yl)phenyl) cyclopropane formamide] | 0% | 0% | – | – | 16.2%
16 | COc1cc(OCCCCCCCCCCCCNC(=O)CC23CC4CC(CC(C4)C2)C3)ccc1Nc1ncc2c(C)cc(=O)n(-c3cccc(NC(=O)C4CC4)c3)c2n1 [ZX-HYT-28, N-(3-(2-((4-((12-(2-((3R, 5R, 7R)-adamantan-1-yl)acetylamino)dodecyl)oxy)-2-methoxyphenyl)amino)-5-methyl-7-oxypyrimidino [2,3-d]pyrimidin-8 (7H)-yl)phenyl) cyclopropane formamide] | – | – | 0.645 µM | 0.177 µM | –
17 | COc1cc(N2CCN(CCCCCCCCCCCCNC(=O)CC34CC5CC(CC(C5)C3)C4)CC2)ccc1Nc1ncc2c(C)cc(=O)n([C@H]3CCC[C@@H](NC(=O)C4CC4)C3)c2n1 [ZX-HYT-23] | 0% | 0% | – | – | 41.4%
